From patent US11370743B2, “Prodrug derivatives of protein kinase C modulators” (priority 2017, dated 2022)
Where two headings read alike, the source gives them in different places.

How the values were obtained:
C57/bl6 mice = assay: In vivo C57/bl6 Mouse CD69 Stimulation Assay; conditions: for CD69 expression versus parent compound: 60 μg dose; for stimulation of CD69 in splenocytes: 24 h post-injection; for bolus toxicity: highest dosage
Method: In vivo C57/bl6 Mouse CD69 Stimulation Assay: C57/bl6 mice were obtained from the UCLA Department of Radiation Oncology. Prodrugs of the disclosure were administered intravenously via retro-orbital injection. At 24 h post-injection, mice were sacrificed and the spleens isolated. Spleens were disaggregated by forcing tissue through a steel mesh and then filtered through a 40 μm filter to produce a single-cell suspension. These cells were then stained for flow cytometry to analyze surface expression of relevant markers. Cells were first suspended in 50 μL of a 1:1 mix of 1× PBS and human AB serum (Sigma) and then stained with a combination of anti-mouse CD3-fluorescein isothiocyanate (eBioscience), CD69-phycoerythrin (eBioscience), and CD4-peridinin chlorophyll protein (eBioscience). Following antibody addition, the mixture was incubated at 4° C. for 15 min. The cells were then washed, resuspended in 1× PBS containing 2% paraformaldehyde, and stored at 4° C. Fixed cells were analyzed using an LSRFortessa (BD Biosciences). The resultant list mode files were processed using FlowJo software (version 7.6).

porcine liver esterase = assay: Porcine Liver Esterase Assay; assay type: in vitro ADME; conditions: pig; 60 units of porcine liver esterase, HEPES buffered saline, pH 7.4, 10% DMSO, 37° C.; read-out: Esterase stability (t1/2)* (converted)
Method: (§1) Hydrolytic Stability Assay: A solution of 400 μM of parent compound or prodrug derivative with 2,4,6-trimethylphenol (800 μM, 107 μg) in HEPES buffered saline, pH 7.4, with 10% DMSO (total volume 1000 μL) was incubated at 37° C. At appropriate time points, 100 μL was removed, flash frozen, and lyophilized. The lyophilized material was then diluted with 100 μL acetonitrile, filtered, and analyzed by analytical HPLC. The degree of degradation was calculated relative to the area under the curve of the compound of interest compared to the internal standard, 2,4,6-trimethylphenol, as shown in Table 1. Porcine Liver Esterase Assay: A solution of 400 μM of parent compound or prodrug derivative with 2,4,6-trimethylphenol (800 μM, 160 μg) and 60 units of porcine liver esterase in HEPES buffered saline, pH 7.4, with 10% DMSO (total volume 1500 μL) was incubated at 37° C. At appropriate time points, 150 μL was removed, flash frozen, and centrifuged at 10,000 rpm. 140 μL of the supernatant was removed and lyophilized. The lyophilized material was then diluted with 100 μL acetonitrile, filtered, and analyzed by analytical HPLC. The degree of esterase cleavage was calculated relative to the area under the curve of the compound of interest compared to the internal standard, 2,4,6-trimethylphenol.

Novel PKCδ = molecular target: T1, Novel PKCδ (Homo sapiens, UniProt Q05655); assay: PKC binding affinity, competitive radioligand assay against 3H-PDBu
T1 construct: a specific full-length PKC isoform was combined with Tris-HCl, KCl, CaCl2
Method: (§2) Testing of Compounds for PKC Binding Affinity: A heterogeneous competitive radioligand assay against ^3H-phorbol-12,13-dibutyrate (^3H-PDBu) was used to generate PKC binding constant (Ki) values. In a typical assay, a specific full-length PKC isoform was combined with Tris-HCl, KCl, CaCl2, bovine serum albumin, water, and phosphatidyl serine. Serial dilutions of the respective analog were added to the PKC mixture; in addition, a solution of a compound with known PKC binding affinity and a solution containing no sample were added for reference.
(§3) After addition of [^3H]PDBu, these samples were incubated, filtered through filters previously wetted with polyethyleneimine and the filters were washed with Tris buffer. The filters were then placed into scintillation vials which were then filled with Bio-Safe scintillation fluid and were measured for radioactivity using a Beckman LS 6000SC scintillation counter. Counts per minute (cpm) were averaged for each triplicate dilution. The data was then plotted (cpm vs. log(concentration)) using Prism® by GraphPad Software and an IC50 was determined using that program's built-in one-site competition least squares regression function. Ki values were calculated by the equation: Ki=IC50/(1+[^3H-PDBu])/KD of ^3H-PDBu).

[1] = Hydrolytic Stability Assay; assay type: physicochemical; conditions: buffer, HEPES buffered saline, pH 7.4, 10% DMSO, 37° C.; for half-life at 400 μM: read-out: Hydrolytic stability (t1/2); for half-life: read-out: Hydrolytic stability (t1/2) (converted)
Method: as §1

Conventional PKCβI = molecular target: T2, Conventional PKCβI (Homo sapiens, UniProt P05771); assay: PKC binding affinity, competitive radioligand assay against 3H-PDBu
T2 construct: a specific full-length PKC isoform was combined with Tris-HCl, KCl, CaCl2
Method: as §2, §3

[2] = tested on: T-lymphoblastoid CEM-SS and C-8166 cells; conditions: CEM-SS and C-8166 cell lines; cited from earlier work
PKC = molecular target: T3, PKC; assay: Saturation binding of 3H-PDBu; conditions: batch-to-batch variability
T3 construct: rows headed: KD of 3H-PDBu

[3] = intravenous retro-orbital injection
[4] = vs 3H-PDBu, read-out: PKC binding affinity, Ki, Novel PKCδ

T1 sequence (Q05655 whole entry, canonical isoform): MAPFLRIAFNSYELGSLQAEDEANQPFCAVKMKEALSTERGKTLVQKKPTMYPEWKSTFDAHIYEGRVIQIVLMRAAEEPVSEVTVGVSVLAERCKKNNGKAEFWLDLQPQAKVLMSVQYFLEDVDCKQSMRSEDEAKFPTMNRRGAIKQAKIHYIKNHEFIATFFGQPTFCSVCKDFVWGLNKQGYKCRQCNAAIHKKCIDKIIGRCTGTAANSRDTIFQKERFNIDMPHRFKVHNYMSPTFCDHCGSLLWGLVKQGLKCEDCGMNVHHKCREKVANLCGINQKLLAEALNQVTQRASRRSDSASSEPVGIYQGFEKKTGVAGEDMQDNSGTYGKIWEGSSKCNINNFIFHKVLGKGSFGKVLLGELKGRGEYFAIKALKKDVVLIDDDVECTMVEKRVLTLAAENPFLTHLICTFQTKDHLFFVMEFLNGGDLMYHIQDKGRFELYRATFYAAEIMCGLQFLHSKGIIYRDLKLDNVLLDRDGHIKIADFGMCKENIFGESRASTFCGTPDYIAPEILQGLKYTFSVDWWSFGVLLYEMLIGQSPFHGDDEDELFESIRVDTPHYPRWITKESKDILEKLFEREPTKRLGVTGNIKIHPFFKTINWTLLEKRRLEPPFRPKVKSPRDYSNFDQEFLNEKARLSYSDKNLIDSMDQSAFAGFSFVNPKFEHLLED
T2 sequence (P05771 whole entry, canonical isoform): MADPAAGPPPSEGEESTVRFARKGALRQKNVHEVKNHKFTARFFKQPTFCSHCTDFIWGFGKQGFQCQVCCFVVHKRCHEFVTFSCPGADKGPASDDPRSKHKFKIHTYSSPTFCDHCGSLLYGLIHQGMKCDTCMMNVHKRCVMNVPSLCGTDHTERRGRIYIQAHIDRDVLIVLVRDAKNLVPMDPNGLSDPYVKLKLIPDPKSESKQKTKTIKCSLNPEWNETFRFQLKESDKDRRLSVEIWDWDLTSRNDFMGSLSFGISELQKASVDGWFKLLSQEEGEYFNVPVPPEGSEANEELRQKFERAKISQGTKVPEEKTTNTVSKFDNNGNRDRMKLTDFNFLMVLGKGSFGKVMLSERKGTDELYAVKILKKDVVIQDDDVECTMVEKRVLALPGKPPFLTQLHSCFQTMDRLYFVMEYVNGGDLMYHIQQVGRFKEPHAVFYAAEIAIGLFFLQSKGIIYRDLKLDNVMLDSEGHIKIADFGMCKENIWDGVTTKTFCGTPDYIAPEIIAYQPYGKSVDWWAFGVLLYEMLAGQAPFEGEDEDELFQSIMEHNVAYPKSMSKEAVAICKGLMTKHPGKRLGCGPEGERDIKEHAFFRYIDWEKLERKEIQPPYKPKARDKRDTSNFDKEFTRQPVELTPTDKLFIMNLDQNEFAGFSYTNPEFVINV

CC1=C[C@H]2[C@@]3(O)[C@H](C)C[C@]4(OC(=O)CC56CC7CC(CC(C7)C5)C6)[C@H]([C@@H]3C=C(CO)C[C@]2(O)C1=O)C4(C)C [Compound 3, adamantyl prostratin]
survival of mice (C57/bl6 mice; [3]): one mouse casualty at 60 pg and no survival beyond that dose
potency compared with prostratin (C57/bl6 mice; intravenous retro-orbital injection, 24 h): higher potency than prostratin

CC(=O)OCC1=C[C@H]2[C@@H]3C(C)(C)[C@]3(OC(=O)CC34CC5CC(CC(C5)C3)C4)C[C@@H](C)[C@]2(O)[C@@H]2C=C(C)C(=O)[C@@]2(O)C1 [Compound 4a]
half-life at 400 μM (porcine liver esterase): 27 ± 3 h
CD69 expression versus parent compound (C57/bl6 mice): more moderate levels of activation
stimulation of CD69 in splenocytes (C57/bl6 mice): strong stimulation of CD69 in splenocytes
bolus toxicity (C57/bl6 mice): no bolus toxicity on mice even at the highest dosage
survival of mice (C57/bl6 mice; [3]): survived
Ki (Novel PKCδ): 9400 nM
half-life at 400 μM [1]: > 168 h

CCCCCC(=O)OCC1=C[C@H]2[C@@H]3C(C)(C)[C@]3(OC(=O)CC34CC5CC(CC(C5)C3)C4)C[C@@H](C)[C@]2(O)[C@@H]2C=C(C)C(=O)[C@@]2(O)C1 [Compound 4b]
half-life at 400 μM (porcine liver esterase): 2.4 ± 0.5 h
Ki (Conventional PKCβI): > 2500 nM
Ki (Novel PKCδ): > 2500 nM
half-life at 400 μM [1]: > 1780 h

CCCCCCCCCC(=O)OCC1=C[C@H]2[C@@H]3C(C)(C)[C@]3(OC(=O)CC34CC5CC(CC(C5)C3)C4)C[C@@H](C)[C@]2(O)[C@@H]2C=C(C)C(=O)[C@@]2(O)C1 [Compound 4c]
half-life at 400 μM (porcine liver esterase): 19 ± 2 h
CD69 expression versus parent compound (C57/bl6 mice): comparable
stimulation of CD69 in splenocytes (C57/bl6 mice): strong stimulation of CD69 in splenocytes
bolus toxicity (C57/bl6 mice): no bolus toxicity on mice even at the highest dosage
survival of mice (C57/bl6 mice; [3]): survived
Ki (Novel PKCδ): 9000 nM
half-life at 400 μM [1]: > 168 h

CC1=C[C@H]2[C@@]3(O)[C@H](C)C[C@]4(OC(=O)CC56CC7CC(CC(C7)C5)C6)[C@H]([C@@H]3C=C(COC(=O)c3ccccc3)C[C@]2(O)C1=O)C4(C)C [Compound 4d]
half-life at 400 μM (porcine liver esterase): 32 ± 9 h
Ki (Conventional PKCβI): > 500 nM
Ki (Novel PKCδ): > 2500 nM
half-life at 400 μM [1]: > 168 h

CCOC(=O)OCC1=C[C@H]2[C@@H]3C(C)(C)[C@]3(OC(=O)CC34CC5CC(CC(C5)C3)C4)C[C@@H](C)[C@]2(O)[C@@H]2C=C(C)C(=O)[C@@]2(O)C1 [Compound 4e]
half-life at 400 μM (porcine liver esterase): 4.8 ± 0.6 h
Ki (Novel PKCδ): 380 nM
half-life at 400 μM [1]: > 168 h

CCCCCCCCNC(=O)OCC1=C[C@H]2[C@@H]3C(C)(C)[C@]3(OC(=O)CC34CC5CC(CC(C5)C3)C4)C[C@@H](C)[C@]2(O)[C@@H]2C=C(C)C(=O)[C@@]2(O)C1 [Compound 4f]
half-life at 400 μM (porcine liver esterase): 71 ± 13 h
Ki (Novel PKCδ): 2900 nM
half-life at 400 μM [1]: > 168 h

CC1=C[C@]23C(=O)[C@@H](C=C(CO)[C@@H](O)[C@]2(O)[C@H]1OC(=O)c1ccc(Br)cc1C)[C@H]1[C@@H](C[C@H]3C)C1(C)C [Compound 6, o-methyl-p-bromo-benzoate ingenol ester]
half-life (porcine liver esterase): 1 h
Ki (Conventional PKCβI; vs 3H-PDBu, read-out: PKC binding affinity, Ki, Conventional PKCβI): 0.85 nM
Ki (Novel PKCδ; [4]): 1.1 nM
half-life [1]: 18 h

CCCCCCCCCC(=O)OCC1=C[C@@H]2C(=O)[C@]3(C=C(C)[C@H](OC(=O)c4ccc(Br)cc4C)[C@@]3(O)[C@@H]1O)[C@H](C)C[C@@H]1[C@H]2C1(C)C [Compound 7]
half-life (porcine liver esterase): 2 h
Ki (Novel PKCδ; [4]): 11000 nM
half-life [1]: 2 h

CC(=O)O[C@@]12C[C@@H](C)[C@@]3(O)[C@@H](C=C(CO)C[C@]4(O)C(=O)C(C)=C[C@@H]34)[C@@H]1C2(C)C [prostratin]
concentration restoring cell viability to the level of uninfected controls [2]: approximately 1 μM
no sign of cytotoxicity up to [2]: about 25 μM

^3H-phorbol-12,13-dibutyrate [^3H-PDBu]
Kd (PKC): 1.55 to 4.4 nM
